The term AC50 denotes the midpoint of the concentration-response curve, whichever way the signal moves. As usually defined, the EC50 is the concentration that produces a half-maximal response.

The record followed here is ChEMBL document CHEMBL1201862, “PubChem BioAssay data set” (2004).

For one assay, the system named is INS1. As to the kind of experiment: beta cell apoptosis inhibitors, cytokine rescue, dose response, luminescence, retest (AID 449756).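 Further: cell death triggered by IL-1 beta plus TNF-alpha plus IFN-gamma mixture; protective hits raise ATP signal compared with cytokine alone wells.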 Particulars: Rattus norvegicus. In kind it is functional, cell-based.
Assay [1] is described as follows: C. albicans growth with fluconazole, confirmation, fluorescence, retest (AID 2467). Type of assay: functional, cell-based.
For assay [2], the target named is Heat shock protein HSP 90-alpha (Homo sapiens, UniProt P07900). In kind it is functional, organism-based.
Assay [3] is described as follows: NIH-3T3 fibroblast cytotoxicity, dose response, cytotoxicity control, cell-based, fluorescence, Alamar Blue, secondary assay (AID 2327).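 Further: NIH-3T3 mouse fibroblasts cultured with fluconazole at 8 µg/mL.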 Type of assay: functional.
Another assay deals with T1, Protein RecA (Mycobacterium tuberculosis, UniProt P9WHJ3).
T1 sequence (P9WHJ3 whole entry): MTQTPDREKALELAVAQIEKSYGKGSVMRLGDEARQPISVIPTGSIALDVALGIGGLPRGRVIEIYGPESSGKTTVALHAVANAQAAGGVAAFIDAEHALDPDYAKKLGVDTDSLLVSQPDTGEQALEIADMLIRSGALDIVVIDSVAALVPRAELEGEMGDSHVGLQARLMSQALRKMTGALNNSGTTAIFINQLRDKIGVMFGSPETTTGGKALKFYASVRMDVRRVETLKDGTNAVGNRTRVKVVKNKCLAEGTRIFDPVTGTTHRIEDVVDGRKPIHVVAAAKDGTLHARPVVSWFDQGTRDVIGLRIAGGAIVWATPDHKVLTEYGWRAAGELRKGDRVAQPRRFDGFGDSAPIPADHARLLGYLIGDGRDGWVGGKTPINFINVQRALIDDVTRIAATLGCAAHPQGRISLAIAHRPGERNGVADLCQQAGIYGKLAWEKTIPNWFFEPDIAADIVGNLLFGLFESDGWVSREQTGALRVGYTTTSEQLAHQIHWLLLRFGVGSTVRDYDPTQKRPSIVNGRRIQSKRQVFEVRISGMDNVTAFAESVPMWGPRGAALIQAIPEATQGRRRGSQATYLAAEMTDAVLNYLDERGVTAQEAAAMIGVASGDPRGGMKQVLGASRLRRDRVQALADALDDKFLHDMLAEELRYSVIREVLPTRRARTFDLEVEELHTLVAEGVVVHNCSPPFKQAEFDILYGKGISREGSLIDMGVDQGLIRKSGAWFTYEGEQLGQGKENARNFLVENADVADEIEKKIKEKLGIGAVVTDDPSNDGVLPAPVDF
As to the kind of experiment: Fluorescence Cell-Free Homogeneous Dose Retest to Identify Inhibitors of RecA-Intein Splicing Activity. [Related pubchem assays (depositor defined):AID2097, AID2223, AID489010, AID492950]. Type of assay: functional.

Assay [4] concerns the target T2, Replicative DNA helicase DnaB (Mycobacterium tuberculosis, UniProt P9WMR3).
T2 sequence (P9WMR3 whole entry): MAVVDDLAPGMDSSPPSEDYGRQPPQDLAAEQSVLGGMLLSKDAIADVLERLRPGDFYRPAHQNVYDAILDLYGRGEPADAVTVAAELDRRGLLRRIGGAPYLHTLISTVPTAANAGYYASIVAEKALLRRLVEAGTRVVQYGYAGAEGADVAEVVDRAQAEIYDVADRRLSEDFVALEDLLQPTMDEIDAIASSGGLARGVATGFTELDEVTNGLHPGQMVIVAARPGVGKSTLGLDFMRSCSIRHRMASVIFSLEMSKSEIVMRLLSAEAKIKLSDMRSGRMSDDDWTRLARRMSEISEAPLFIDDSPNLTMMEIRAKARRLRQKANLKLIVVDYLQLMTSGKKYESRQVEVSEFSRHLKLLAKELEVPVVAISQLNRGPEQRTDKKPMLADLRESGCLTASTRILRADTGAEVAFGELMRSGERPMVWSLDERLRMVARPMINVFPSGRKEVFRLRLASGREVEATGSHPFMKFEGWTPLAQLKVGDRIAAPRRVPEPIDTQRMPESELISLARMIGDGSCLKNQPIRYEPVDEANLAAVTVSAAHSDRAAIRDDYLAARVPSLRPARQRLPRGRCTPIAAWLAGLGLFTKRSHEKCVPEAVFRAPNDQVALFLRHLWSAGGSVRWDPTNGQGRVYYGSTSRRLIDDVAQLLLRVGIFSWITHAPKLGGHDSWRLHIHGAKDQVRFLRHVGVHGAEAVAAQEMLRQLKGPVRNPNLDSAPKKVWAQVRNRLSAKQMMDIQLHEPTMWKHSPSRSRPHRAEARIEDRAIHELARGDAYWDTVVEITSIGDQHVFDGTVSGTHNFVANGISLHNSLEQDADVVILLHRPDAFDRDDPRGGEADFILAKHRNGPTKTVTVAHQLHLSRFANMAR
As to the kind of experiment: DnaB intein splicing inhibitors, dose response, biochemical, cell-free fluorescence (AID 449749). Type of assay: functional.

Activity calls are given as the source filed them.

Consider `CC(C)CC(=O)NC(c1cccs1)c1ccc2cccnc2c1O` (stereo not given), for which the figures for the half-maximal activity concentration (AC50) (in the assay with INS1; in assay [2]) were 0.862 µM (active) and 3.78 µM (active), respectively. Besides, the EC50 is 0.58 µM (active) in assay [1] and 24.3 µM (active) in assay [3].
For `CCOC(=O)c1ccc(NC2=CC(=O)C(=O)c3ccccc32)cc1`, the EC50 on Protein RecA is 3.24 µM (active). In assay [4], the AC50 was > 380 µM (inactive).
In the case of `OC(CNCCC1C=Nc2ccccc21)Cn1c2ccc(Cl)cc2c2cc(Cl)ccc21` (stereo not given), the EC50 is 9.52 µM (active) at Protein RecA, > 38 µM (not active) in assay [1] and 14.3 µM (inconclusive) in assay [3]. The AC50 is 7.32 µM (active) in the assay on INS1, 8.15 µM (active) in assay [2] and 6.51 µM (active) in assay [4].
Turning to `CCCCCCCCCCCCCCCC[N+](C)(C)C`, the half-maximal effective concentration (EC50) at Protein RecA was 14.7 µM (active); in assay [1], > 38 µM (not active); in assay [3], > 150 µM (inconclusive). The AC50 was 4.84 µM (active) in the assay with INS1, 8.33 µM (active) in assay [2] and 4.78 µM (active) in assay [4].
For `Cc1ccccc1-c1cc2c(nn1)-c1ccccc1C2=O`, on Protein RecA, the EC50 is 0.891 µM (active). Further, in assay [4], the AC50 was 6.85 µM (active).
